Where “and” joins values, the source holds several entries; their conditions need not be identical. Equal values may be shown once. Marks after values point to notes of the source that are not given here.
Experiments:
[1] = tested on: paraoxonase1 (PON1) in liver; conditions: Pathway 3 (CPO to TCPy in liver); pooled HLMs; ref Zhao et al. ([2019]); cited from earlier work
PON1 in plasma = experiment: PON1-catalyzed detoxification of CPO to TCPy in individual human plasma (pathway 4); assay type: in vitro ADME; conditions: for CE / Scaled CE / Vmax / Vmax (app) / Scaled Vmax: CPO to TCPy; for Scaled Vmax: Eq 7
Procedure: After 1 min preincubation in a shaking 37 °C water bath, 1 µl of individual HP was added into the incubation system. Control incubations were performed by replacing plasma with the same amount of 50 mM Tris–HCl (pH 7.4). The total volume of the incubation mixtures was 200 µl. The incubation lasted for 1.5 min at 37 °C and was terminated by addition of 200 µl ice cold ACN and subsquently put on ice. Samples were subsequently centrifuged at 16,000 g (4 ℃) for 5 min and analyzed by UPLC-PDA. […]
In pathway 4, the in vivo VmaxHP (µmol/h) was extrapolated from its corresponding mean of the apparent VmaxHP(app) (nmol/min/ml plasma) of 25 individuals HP using Eq. 7:7 VmaxHP=VmaxHP(app)×60×1000×VB×0.55/1000,

For CCOP(=O)(OCC)Oc1nc(Cl)c(Cl)cc1Cl [CPO, chlorpyrifos-oxon], the Km [1] is given as 628 µM, the Vmax [1] is given as 37.980 ^e nmol/min/mg microsomal protein and the “difference between the highest and the lowest CE” value (PON1 in plasma; CPO detoxification in plasma of 25 individuals) is given as “around 2.6 fold”. The CE (PON1 in plasma; plasma individual 1 (64)) was 4.1 ml/min/ml plasma, the “Scaled CE” value (PON1 in plasma; plasma individual 1 (64)) was 750.1 L/h and the Vmax (PON1 in plasma; plasma individual 1 (64)) was 1596 nmol/min/ml plasma. For the same molecule, the “Vmax (app)” value (PON1 in plasma; plasma individual 1 (64)) was 21.78 nmol/min/mg plasma protein, the “Scaled Vmax” value (PON1 in plasma; plasma individual 1 (64)) was 291247 µmol/h and the CE (PON1 in plasma; plasma individual 2 (65)) was 4.0 ml/min/ml plasma. The “Scaled CE” value (PON1 in plasma; plasma individual 2 (65)) was 724.7 L/h, the Vmax (PON1 in plasma; plasma individual 2 (65)) was 1233 nmol/min/ml plasma and the “Vmax (app)” value (PON1 in plasma; plasma individual 2 (65)) was 17.32 nmol/min/mg plasma protein. For the same molecule, the “Scaled Vmax” value (PON1 in plasma; plasma individual 2 (65)) was 224952 µmol/h, the CE (PON1 in plasma; plasma individual 3 (56)) was 6.4 ml/min/ml plasma and the “Scaled CE” value (PON1 in plasma; plasma individual 3 (56)) was 1172.4 L/h. The Vmax (PON1 in plasma; plasma individual 3 (56)) was 2439 nmol/min/ml plasma, the “Vmax (app)” value (PON1 in plasma; plasma individual 3 (56)) was 32.15 nmol/min/mg plasma protein and the “Scaled Vmax” value (PON1 in plasma; plasma individual 3 (56)) was 445176 µmol/h. The CE (PON1 in plasma; plasma individual 4 (52)) was 5.0 ml/min/ml plasma, the “Scaled CE” value (PON1 in plasma; plasma individual 4 (52)) was 915.9 L/h and the Vmax (PON1 in plasma; plasma individual 4 (52)) was 1591 nmol/min/ml plasma. The “Vmax (app)” value (PON1 in plasma; plasma individual 4 (52)) was 22.39 nmol/min/mg plasma protein, the “Scaled Vmax” value (PON1 in plasma; plasma individual 4 (52)) was 290427 µmol/h and the CE (PON1 in plasma; plasma individual 5 (51)) was 5.2 ml/min/ml plasma. For the same molecule, the “Scaled CE” value (PON1 in plasma; plasma individual 5 (51)) was 939.9 L/h, the Vmax (PON1 in plasma; plasma individual 5 (51)) was 3284 nmol/min/ml plasma and the “Vmax (app)” value (PON1 in plasma; plasma individual 5 (51)) was 45.36 nmol/min/mg plasma protein. The “Scaled Vmax” value (PON1 in plasma; plasma individual 5 (51)) was 599306 µmol/h, the CE (PON1 in plasma; plasma individual 6 (57)) was 5.7 ml/min/ml plasma and the “Scaled CE” value (PON1 in plasma; plasma individual 6 (57)) was 1047.5 L/h. For the same molecule, the Vmax (PON1 in plasma; plasma individual 6 (57)) was 1878 nmol/min/ml plasma, the “Vmax (app)” value (PON1 in plasma; plasma individual 6 (57)) was 23.22 nmol/min/mg plasma protein and the “Scaled Vmax” value (PON1 in plasma; plasma individual 6 (57)) was 342626 µmol/h. For the same molecule, the CE (PON1 in plasma; plasma individual 7) was 7.9 ml/min/ml plasma, the “Scaled CE” value (PON1 in plasma; plasma individual 7) was 1441.5 L/h and the Vmax (PON1 in plasma; plasma individual 7) was 1203 nmol/min/ml plasma. For the same molecule, the “Vmax (app)” value (PON1 in plasma; plasma individual 7) was 14.99 nmol/min/mg plasma protein, the “Scaled Vmax” value (PON1 in plasma; plasma individual 7) was 219543 µmol/h and the CE (PON1 in plasma; plasma individual 8) was 7.3 ml/min/ml plasma. The “Scaled CE” value (PON1 in plasma; plasma individual 8) was 1332.3 L/h, the Vmax (PON1 in plasma; plasma individual 8) was 1663 nmol/min/ml plasma and the “Vmax (app)” value (PON1 in plasma; plasma individual 8) was 21.31 nmol/min/mg plasma protein. The “Scaled Vmax” value (PON1 in plasma; plasma individual 8) was 303506 µmol/h, the CE (PON1 in plasma; plasma individual 9) was 7.6 ml/min/ml plasma and the “Scaled CE” value (PON1 in plasma; plasma individual 9) was 1391.7 L/h. For the same molecule, the Vmax (PON1 in plasma; plasma individual 9) was 2157 nmol/min/ml plasma, the “Vmax (app)” value (PON1 in plasma; plasma individual 9) was 27.46 nmol/min/mg plasma protein and the “Scaled Vmax” value (PON1 in plasma; plasma individual 9) was 393583 µmol/h. For the same molecule, the CE (PON1 in plasma; plasma individual 10) was 9.2 ml/min/ml plasma, the “Scaled CE” value (PON1 in plasma; plasma individual 10) was 1671.6 L/h and the Vmax (PON1 in plasma; plasma individual 10) was 2370 nmol/min/ml plasma. The “Vmax (app)” value (PON1 in plasma; plasma individual 10) was 28.9 nmol/min/mg plasma protein, the CE (PON1 in plasma; plasma individual 11) was 6.4 ml/min/ml plasma and the “Scaled CE” value (PON1 in plasma; plasma individual 11) was 1168.7 L/h. The Vmax (PON1 in plasma; plasma individual 11) was 1314 nmol/min/ml plasma, the “Vmax (app)” value (PON1 in plasma; plasma individual 11) was 17.42 nmol/min/mg plasma protein and the “Scaled Vmax” value (PON1 in plasma; plasma individual 11) was 239710 µmol/h. For the same molecule, the CE (PON1 in plasma; plasma individual 12) was 8.2 ml/min/ml plasma, the “Scaled CE” value (PON1 in plasma; plasma individual 12) was 1500.5 L/h and the Vmax (PON1 in plasma; plasma individual 12) was 2461 nmol/min/ml plasma. For the same molecule, the “Vmax (app)” value (PON1 in plasma; plasma individual 12) was 26.75 nmol/min/mg plasma protein, the “Scaled Vmax” value (PON1 in plasma; plasma individual 12) was 449105 µmol/h and the CE (PON1 in plasma; plasma individual 13) was 6.6 ml/min/ml plasma. For the same molecule, the “Scaled CE” value (PON1 in plasma; plasma individual 13) was 1211.5 L/h, the Vmax (PON1 in plasma; plasma individual 13) was 1498 nmol/min/ml plasma and the “Vmax (app)” value (PON1 in plasma; plasma individual 13) was 20.58 nmol/min/mg plasma protein. The “Scaled Vmax” value (PON1 in plasma; plasma individual 13) was 273437 µmol/h, the CE (PON1 in plasma; plasma individual 14) was 5.8 ml/min/ml plasma and the “Scaled CE” value (PON1 in plasma; plasma individual 14) was 1053.7 L/h. The Vmax (PON1 in plasma; plasma individual 14) was 2064 nmol/min/ml plasma, the “Vmax (app)” value (PON1 in plasma; plasma individual 14) was 28.36 nmol/min/mg plasma protein and the “Scaled Vmax” value (PON1 in plasma; plasma individual 14) was 376692 µmol/h. The CE (PON1 in plasma; plasma individual 15) was 9.8 ml/min/ml plasma, the “Scaled CE” value (PON1 in plasma; plasma individual 15) was 1793.2 L/h and the Vmax (PON1 in plasma; plasma individual 15) was 1840 nmol/min/ml plasma. The “Vmax (app)” value (PON1 in plasma; plasma individual 15) was 24.79 nmol/min/mg plasma protein, the “Scaled Vmax” value (PON1 in plasma; plasma individual 15) was 335867 µmol/h and the CE (PON1 in plasma; plasma individual 16) was 3.7 ml/min/ml plasma. The “Scaled CE” value (PON1 in plasma; plasma individual 16) was 671.6 L/h, the Vmax (PON1 in plasma; plasma individual 16) was 912 nmol/min/ml plasma and the “Vmax (app)” value (PON1 in plasma; plasma individual 16) was 11.28 nmol/min/mg plasma protein. The “Scaled Vmax” value (PON1 in plasma; plasma individual 16) was 166366 µmol/h, the CE (PON1 in plasma; plasma individual 17) was 8.1 ml/min/ml plasma and the “Scaled CE” value (PON1 in plasma; plasma individual 17) was 1480.1 L/h. For the same molecule, the Vmax (PON1 in plasma; plasma individual 17) was 2287 nmol/min/ml plasma, the “Vmax (app)” value (PON1 in plasma; plasma individual 17) was 32.03 nmol/min/mg plasma protein and the “Scaled Vmax” value (PON1 in plasma; plasma individual 17) was 417377 µmol/h. The CE (PON1 in plasma; plasma individual 18) was 5.6 ml/min/ml plasma, the “Scaled CE” value (PON1 in plasma; plasma individual 18) was 1029.2 L/h and the Vmax (PON1 in plasma; plasma individual 18) was 1132 nmol/min/ml plasma. For the same molecule, the “Vmax (app)” value (PON1 in plasma; plasma individual 18) was 15.18 nmol/min/mg plasma protein, the “Scaled Vmax” value (PON1 in plasma; plasma individual 18) was 206569 µmol/h and the CE (PON1 in plasma; plasma individual 19 (48)) was 5.3 ml/min/ml plasma. For the same molecule, the “Scaled CE” value (PON1 in plasma; plasma individual 19 (48)) was 971.2 L/h, the Vmax (PON1 in plasma; plasma individual 19 (48)) was 1329 nmol/min/ml plasma and the “Vmax (app)” value (PON1 in plasma; plasma individual 19 (48)) was 18.21 nmol/min/mg plasma protein. The “Scaled Vmax” value (PON1 in plasma; plasma individual 19 (48)) was 242612 µmol/h, the CE (PON1 in plasma; plasma individual 20 (49)) was 6.9 ml/min/ml plasma and the “Scaled CE” value (PON1 in plasma; plasma individual 20 (49)) was 1252.4 L/h. The Vmax (PON1 in plasma; plasma individual 20 (49)) was 2111 nmol/min/ml plasma, the “Vmax (app)” value (PON1 in plasma; plasma individual 20 (49)) was 24.85 nmol/min/mg plasma protein and the “Scaled Vmax” value (PON1 in plasma; plasma individual 20 (49)) was 385226 µmol/h. The CE (PON1 in plasma; plasma individual 21 (44)) was 6.5 ml/min/ml plasma, the “Scaled CE” value (PON1 in plasma; plasma individual 21 (44)) was 1181.9 L/h and the Vmax (PON1 in plasma; plasma individual 21 (44)) was 1835 nmol/min/ml plasma. For the same molecule, the “Vmax (app)” value (PON1 in plasma; plasma individual 21 (44)) was 23.05 nmol/min/mg plasma protein, the “Scaled Vmax” value (PON1 in plasma; plasma individual 21 (44)) was 334943 µmol/h and the CE (PON1 in plasma; plasma individual 22 (34)) was 7.3 ml/min/ml plasma. The “Scaled CE” value (PON1 in plasma; plasma individual 22 (34)) was 1325.9 L/h, the Vmax (PON1 in plasma; plasma individual 22 (34)) was 1726 nmol/min/ml plasma and the “Vmax (app)” value (PON1 in plasma; plasma individual 22 (34)) was 24.05 nmol/min/mg plasma protein. For the same molecule, the “Scaled Vmax” value (PON1 in plasma; plasma individual 22 (34)) was 315041 µmol/h, the CE (PON1 in plasma; plasma individual 23 (47)) was 5.7 ml/min/ml plasma and the “Scaled CE” value (PON1 in plasma; plasma individual 23 (47)) was 1044.7 L/h. The Vmax (PON1 in plasma; plasma individual 23 (47)) was 2141 nmol/min/ml plasma, the “Vmax (app)” value (PON1 in plasma; plasma individual 23 (47)) was 24.05 nmol/min/mg plasma protein and the “Scaled Vmax” value (PON1 in plasma; plasma individual 23 (47)) was 390628 µmol/h. The CE (PON1 in plasma; plasma individual 24 (28)) was 8.7 ml/min/ml plasma, the “Scaled CE” value (PON1 in plasma; plasma individual 24 (28)) was 1595.0 L/h and the Vmax (PON1 in plasma; plasma individual 24 (28)) was 2357 nmol/min/ml plasma. The “Vmax (app)” value (PON1 in plasma; plasma individual 24 (28)) was 28.44 nmol/min/mg plasma protein, the “Scaled Vmax” value (PON1 in plasma; plasma individual 24 (28)) was 430169 µmol/h and the CE (PON1 in plasma; plasma individual 25 (41)) was 7.1 ml/min/ml plasma. For the same molecule, the “Scaled CE” value (PON1 in plasma; plasma individual 25 (41)) was 1293.4 L/h, the Vmax (PON1 in plasma; plasma individual 25 (41)) was 1676 nmol/min/ml plasma and the “Vmax (app)” value (PON1 in plasma; plasma individual 25 (41)) was 22.13 nmol/min/mg plasma protein. The “Scaled Vmax” value (PON1 in plasma; plasma individual 25 (41)) was 305884 µmol/h and the “Vmax (mean)” value (PON1 in plasma; Pathway 4 (CPO to TCPy in plasma), mean of 25 individual HP samples) was 1844 nmol/min/ml plasma and 1844.000^i nmol/min/ml plasma.

From article PMC9013686, “Inter-individual variation in chlorpyrifos toxicokinetics characterized by physiologically based kinetic (PBK) and Monte Carlo simulation comparing human liver microsome and Supersome™ cytochromes P450 (CYP)-specific kinetic data as model input” (Archives of Toxicology, 2022)
